The EC50 is the concentration giving half of the maximal effect.

SMILES strings stand for the structures. Bounds are passed on as bounds.

human mGluR4, sequence (Q14833 33-912): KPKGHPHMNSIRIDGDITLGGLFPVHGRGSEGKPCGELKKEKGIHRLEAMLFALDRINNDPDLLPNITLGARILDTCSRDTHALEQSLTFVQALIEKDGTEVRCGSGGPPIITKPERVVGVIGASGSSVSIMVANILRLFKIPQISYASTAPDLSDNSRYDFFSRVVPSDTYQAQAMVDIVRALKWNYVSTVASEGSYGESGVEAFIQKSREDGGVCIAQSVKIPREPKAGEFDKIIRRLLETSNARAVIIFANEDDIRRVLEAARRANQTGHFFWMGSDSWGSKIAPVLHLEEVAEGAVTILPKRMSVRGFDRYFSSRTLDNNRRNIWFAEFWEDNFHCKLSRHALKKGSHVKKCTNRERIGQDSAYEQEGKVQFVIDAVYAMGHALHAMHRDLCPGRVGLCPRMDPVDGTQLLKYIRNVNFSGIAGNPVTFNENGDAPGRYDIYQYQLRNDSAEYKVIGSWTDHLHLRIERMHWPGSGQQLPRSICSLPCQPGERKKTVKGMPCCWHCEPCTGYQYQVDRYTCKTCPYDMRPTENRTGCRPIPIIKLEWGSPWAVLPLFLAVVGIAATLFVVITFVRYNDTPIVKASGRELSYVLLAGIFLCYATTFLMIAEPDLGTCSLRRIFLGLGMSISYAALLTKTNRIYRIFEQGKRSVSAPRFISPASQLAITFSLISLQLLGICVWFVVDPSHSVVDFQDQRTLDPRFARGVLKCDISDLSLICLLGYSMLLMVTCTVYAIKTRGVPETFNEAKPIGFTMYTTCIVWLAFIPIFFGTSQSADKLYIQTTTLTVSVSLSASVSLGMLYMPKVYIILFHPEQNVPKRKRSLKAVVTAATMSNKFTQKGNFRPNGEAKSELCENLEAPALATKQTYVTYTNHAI

In this test the target is human mGluR4 (Homo sapiens (Human), UniProt Q14833). Nature of the test: mGluR4 potentiation assay, CHO cells transfected with human mGluR4, Ca2+-sensitive fluorescent dye, EC20 agonist. Format: cell-based. Conditions: potentiation of mGluR4; table does not state human or rat receptor. As for the experimental part:
The disclosed compounds and compositions can be evaluated for their ability to act as a potentiator of metabotropic glutamate receptor activity, in particular mGluR4 activity, by any suitable known methodology known in the art. For example, Chinese Hamster Ovary (CHO) cells transfected with human mGluR4 or HEK cells co-transfected with rat mGluR4 and the G-protein regulated Inwardly Rectifying Potassium channel (GIRK) were plated in clear bottom assay plates for assay in a Hamamatsu FDSS Fluorometric Plate Reader. The cells were loaded with either a Ca2+-sensitive fluorescent dye or the thallium responsive dye and the plates were washed and placed into a suitable kinetic plate reader. For human mGluR4 assays, a fluorescence baseline was established for 3-5 seconds, the disclosed compounds were then added to the cells, and the response in cells was measured. Approximately two and a half minutes later, a concentration of mGluR4 orthosteric agonist (e.g. glutamate or L-AP4) eliciting approximately 20% (EC20) of the maximal agonist response was added to the cells, and the response was measured. Two minutes later, a concentration of mGluR4 agonist (e.g. glutamate or L-AP4) eliciting 80% (EC80) of the maximal agonist response was added to the cells, and the response was measured. For rat mGluR4/GIRK experiments, a baseline was established for approximately five seconds, disclosed compounds were added, and either an EC20 or EC80 concentration of agonist was added approximately two and one half minutes later.
The above described assay operated in two modes. In the first mode, a range of concentrations of the disclosed compounds are added to cells, followed by a single fixed concentration of agonist. If the compound acts as a potentiatior, an EC50 value for potentiation and a maximum extent of potentiation by the compound at this concentration of agonist is determined by non-linear curve fitting. If the compound acts as a noncompetitive antagonist, an IC50 value is determined by non-linear curve fitting. In the second mode, several fixed concentrations of the disclosed compounds are added to various wells on a plate, followed by a range in concentrations of agonist for each concentration of disclosed compound. The EC50 values for the agonist at each concentration of compound are determined by non-linear curve fitting. A decrease in the EC50 value of the agonist with increasing concentrations of the sample compound (a leftward shift of the agonist concentration-response curve) is an indication of the degree of mGluR4 potentiation at a given concentration of the sample compound. A decrease in the maximal response of the agonist with increasing concentrations of the sample compounds, with or without a rightward shift in agonist potency, is an indication of the degree of noncompetitive antagonism at mGluR4. The second mode also indicates whether the sample compounds also affect the maximum response to mGluR4 to agonists.
As for `CS(=O)(=O)c1ccc(Nc2n[nH]c3cccnc23)cc1Cl` [Example 56, N-(3-chloro-4-(methylsulfonyl)phenyl)-1H-pyrazolo[4,3-b]pyridin-3-amine], the EC50 turned out to be 7860 nM.

On to `c1cnc2c(NCC3CCCCC3)n[nH]c2c1` [Example 49, N-(cyclohexylmethyl)-1H-pyrazolo[4,3-b]pyridin-3-amine], for which the EC50 came to 5300 nM.

Take `Cc1cc(C)cc(Nc2n[nH]c3cccnc23)c1` [Example 37, N-(3,5-dimethylphenyl)-1H-pyrazolo[4,3-b]pyridin-3-amine]: the EC50 is 177 nM.

On to `Clc1cc(N(c2ncccn2)c2n[nH]c3cccnc23)ccc1Oc1ncccn1` [Example 27, N-(3-chloro-4-(pyrimidin-2-yloxy)phenyl)-N-(pyrimidin-2-yl)-1H-pyrazolo[4,3-b]pyridin-3-amine], for which the EC50 came out at 9070 nM.

Turning to `CS(=O)(=O)c1cc(Nc2n[nH]c3cccnc23)ccc1F` [Example 72, N-(4-fluoro-3-(methylsulfonyl)phenyl)-1H-pyrazolo[4,3-b]pyridin-3-amine], the 50% effective concentration (EC50) was 9100 nM.

As for `N#Cc1ccc(Nc2n[nH]c3cccnc23)cc1Cl` [Example 21, 4-((1H-pyrazolo[4,3-b]pyridin-3-yl)amino)-2-chlorobenzonitrile], the EC50 stood at 93 nM.

On to `Cc1ccc(NC(=O)Nc2n[nH]c3cccnc23)cc1C` [Example 44, 1-(3,4-dimethylphenyl)-3-(1H-pyrazolo[4,3-b]pyridin-3-yl)urea], for which the EC50 was found to be 12800 nM.

For the molecule `Cc1ccc(Nc2n[nH]c3cccnc23)cc1Cl` [Example 83, N-(3-chloro-4-methylphenyl)-1H-pyrazolo[4,3-b]pyridin-3-amine], the EC50 came out at 165 nM.

Turning to `Fc1cc(Nc2n[nH]c3cccnc23)ccc1Oc1cc(C(F)(F)F)ccn1` [Example 75, N-(3-fluoro-4-((4-(trifluoromethyl)pyridin-2-yl)oxy)phenyl)-1H-pyrazolo[4,3-b]pyridin-3-amine], the EC50 was 497 nM.

For `FC(F)(F)c1ccc(Nc2n[nH]c3cccnc23)cc1Cl` [Example 22, N-(3-chloro-4-(trifluoromethyl)phenyl)-1H-pyrazolo[4,3-b]pyridin-3-amine], the concentration giving a half-maximal response (EC50) was 2150 nM.

For `Fc1cncc(Nc2n[nH]c3cccnc23)c1` [Example 4, N-(5-fluoropyridin-3-yl)-1H-pyrazolo[4,3-b]pyridin-3-amine], the EC50 was determined as 9180 nM.

Regarding `Clc1cc(Nc2n[nH]c3cccnc23)ccn1` [Example 23, N-(2-chloropyridin-4-yl)-1H-pyrazolo[4,3-b]pyridin-3-amine], the EC50 was found to be 1490 nM.

For `O=C(c1ccccc1)c1ccc(Nc2n[nH]c3cccnc23)cc1Cl` [Example 64, (4-((1H-pyrazolo[4,3-b]pyridin-3-yl)amino)-2-chlorophenyl)(phenyl)methanone], the EC50 was 351 nM.

Take `COc1ccc(Nc2n[nH]c3cccnc23)cc1OC(F)F` [Example 10, N-(3-(difluoromethoxy)-4-methoxyphenyl)-1H-pyrazolo[4,3-b]pyridin-3-amine]: the EC50 was 885 nM.

For `COc1ccc(Nc2n[nH]c3cccnc23)cc1Cl` [Example 8, N-(3-chloro-4-methoxyphenyl)-1H-pyrazolo[4,3-b]pyridin-3-amine], the concentration giving a half-maximal response (EC50) worked out at 282 nM.

For the molecule `CC1Oc2ccc(Nc3n[nH]c4cccnc34)cc2N(C)C1=O` (stereo not shown) [Example 63, 6-((1H-pyrazolo[4,3-b]pyridin-3-yl)amino)-2,4-dimethyl-2H-benzo[b][1,4]oxazin-3(4H)-one], the EC50 amounted to 8340 nM.

As for `Fc1ccc(Cl)cc1Nc1n[nH]c2cccnc12` [Example 16, N-(5-chloro-2-fluorophenyl)-1H-pyrazolo[4,3-b]pyridin-3-amine], the EC50 turned out to be 116 nM.

`CC(C)(C)c1cccc(Nc2n[nH]c3cccnc23)c1` [Example 61, N-(3-(tert-butyl)phenyl)-1H-pyrazolo[4,3-b]pyridin-3-amine]: the EC50 worked out at 7930 nM.

Take `c1cnc2c(Nc3cncnc3)n[nH]c2c1` [Example 39, N-(pyrimidin-5-yl)-1H-pyrazolo[4,3-b]pyridin-3-amine]: the EC50 is 8990 nM.

For the molecule `Clc1cc(Nc2n[nH]c3cccnc23)ccc1OCc1ccccc1` [Example 87, N-(4-(benzyloxy)-3-chlorophenyl)-1H-pyrazolo[4,3-b]pyridin-3-amine], the concentration giving a half-maximal response (EC50) turned out to be 426 nM.

`CN1C(=O)COc2ccc(Nc3n[nH]c4cccnc34)cc21` [Example 55, 6-((1H-pyrazolo[4,3-b]pyridin-3-yl)amino)-4-methyl-2H-benzo[b][1,4]oxazin-3(4H)-one]: the EC50 was 8140 nM.

Regarding `COc1cc(Nc2n[nH]c3cccnc23)ccc1F` [Example 11, N-(4-fluoro-3-methoxyphenyl)-1H-pyrazolo[4,3-b]pyridin-3-amine], the EC50 came to 1030 nM.

For the molecule `CC(C)C1CCC(Nc2n[nH]c3cccnc23)CC1` (stereo not shown) [Example 29, N-(4-isopropylcyclohexyl)-1H-pyrazolo[4,3-b]pyridin-3-amine], the EC50 was determined as 5220 nM.

For `Clc1cccc(Nc2c[nH]c3cccnc23)c1` [Example 25, N-(3-chlorophenyl)-1H-pyrrolo[3,2-b]pyridin-3-amine], the EC50 turned out to be 6360 nM.

On to `Fc1ccc(Nc2n[nH]c3scnc23)cc1Cl` [Example 41, N-(3-chloro-4-fluorophenyl)-1H-pyrazolo[4,3-d]thiazol-3-amine], for which the EC50 was 1180 nM.

Regarding `CN1C(=O)COc2cc(Nc3n[nH]c4cccnc34)ccc21` [Example 54, 7-((1H-pyrazolo[4,3-b]pyridin-3-yl)amino)-4-methyl-2H-benzo[b][1,4]oxazin-3(4H)-one], the EC50 was over 10000 nM.

`Fc1cc(F)c(F)c(Nc2n[nH]c3cccnc23)c1` [Example 57, N-(2,3,5-trifluorophenyl)-1H-pyrazolo[4,3-b]pyridin-3-amine]: the 50% effective concentration (EC50) is 782 nM.

Take `O=C(c1ccccc1F)c1ccc(Nc2n[nH]c3cccnc23)cc1Cl` [Example 88, (4-((1H-pyrazolo[4,3-b]pyridin-3-yl)amino)-2-chlorophenyl)(2-fluorophenyl)methanone]: the EC50 came out at 311 nM.

Regarding `Cc1cc(NC(=O)Nc2n[nH]c3cccnc23)ccc1F` [Example 46, 1-(4-fluoro-3-methylphenyl)-3-(1H-pyrazolo[4,3-b]pyridin-3-yl)urea], the EC50 is 6840 nM.

On to `Fc1cc(F)cc(Nc2n[nH]c3cccnc23)c1` [Example 85, N-(3,5-difluorophenyl)-1H-pyrazolo[4,3-b]pyridin-3-amine], for which the EC50 came to 101 nM.

`c1ccc2ncc(Nc3n[nH]c4cccnc34)cc2c1` [Example 40, N-(1H-pyrazolo[4,3-b]pyridin-3-yl)quinolin-3-amine]: the EC50 turned out to be 961 nM.

For the molecule `Oc1ccc(Nc2n[nH]c3cccnc23)cc1F` [Example 73, 4-((1H-pyrazolo[4,3-b]pyridin-3-yl)amino)-2-fluorophenol], the EC50 was determined as 349 nM.

Regarding `Fc1ccc(Nc2n[nH]c3nccnc23)cc1Cl` [Example 28, N-(3-chloro-4-fluorophenyl)-1H-pyrazolo[3,4-b]pyrazin-3-amine], the EC50 stood at 156 nM.

Consider `Clc1cc(Nc2n[nH]c3cccnc23)ccc1Oc1ccccn1` [Example 52, N-(3-chloro-4-(pyridin-2-yloxy)phenyl)-1H-pyrazolo[4,3-b]pyridin-3-amine], for which the EC50 worked out at 112 nM.

For `FC(F)Oc1cccc(Nc2n[nH]c3cccnc23)c1` [Example 9, N-(3-(difluoromethoxy)phenyl)-1H-pyrazolo[4,3-b]pyridin-3-amine], the EC50 turned out to be 254 nM.

For the molecule `Clc1cc(Nc2n[nH]c3cccnc23)cnc1Oc1ccccn1` [Example 96, N-(5-chloro-6-(pyridin-2-yloxy)pyridin-3-yl)-1H-pyrazolo[4,3-b]pyridin-3-amine], the EC50 came to 3360 nM.

Take `CCc1cccc(Nc2n[nH]c3cccnc23)c1` [Example 60, N-(3-ethylphenyl)-1H-pyrazolo[4,3-b]pyridin-3-amine]: the half-maximal effective concentration (EC50) was 2580 nM.

In the case of `Clc1cc(Nc2n[nH]c3cccnc23)cnc1N1CCCC1` [Example 31, N-(5-chloro-6-(pyrrolidin-l-yl)pyridin-3-yl)-1H-pyrazolo[4,3-b]pyridin-3-amine], the concentration for a half-maximal effect (EC50) was determined as 1550 nM.

Take `Fc1ccc(Nc2n[nH]c3cncnc23)cc1Cl` [Example 26, N-(3-chloro-4-fluorophenyl)-1H-pyrazolo[4,3-d]pyrimidin-3-amine]: the EC50 is 3070 nM.

For the molecule `Clc1cncc(Nc2n[nH]c3cccnc23)n1` [Example 32, N-(6-chloropyrazin-2-yl)-1H-pyrazolo[4,3-b]pyridin-3-amine], the EC50 was determined as 9990 nM.

(Values after US9163015B2, “Pyrazolopyridine, pyrarolopyrazine, pyrazolopyrimidine, pyrazolothiophene and pyrazolothiazole compounds as MGLUR4 allosteric potentiators, compositions, and methods of treating neurological dysfunction” (Vanderbilt University, priority 2010, dated 2015).)
